Measurements reported in article PMC7132332 (Biochemistry, 2020).

Target: T1, WecA (Escherichia coli, UniProt P0AC78)
T1 sequence (P0AC78 1-367): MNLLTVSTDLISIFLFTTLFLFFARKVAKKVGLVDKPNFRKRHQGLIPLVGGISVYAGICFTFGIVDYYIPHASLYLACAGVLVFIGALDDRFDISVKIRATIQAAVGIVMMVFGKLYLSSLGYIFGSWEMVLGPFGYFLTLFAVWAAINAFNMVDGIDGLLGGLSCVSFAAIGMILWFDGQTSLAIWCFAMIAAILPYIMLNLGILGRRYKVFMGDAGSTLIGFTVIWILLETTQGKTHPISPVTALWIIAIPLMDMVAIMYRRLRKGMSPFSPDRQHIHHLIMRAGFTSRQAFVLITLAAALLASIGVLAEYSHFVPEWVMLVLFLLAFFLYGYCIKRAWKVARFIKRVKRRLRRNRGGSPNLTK
Assay: HPLC transferase assay with cell envelope fraction
Type: biochemical
Conditions: 2CN- or NBD-B(4Z)P; overexpressed recombinant WecA; bicine pH 8.5, MgCl2, cholate, 37 °C

With CC(=O)N[C@H]1[C@@H](OP(=O)(O)OP(=O)(O)OC[C@H]2O[C@@H](n3ccc(=O)[nH]c3=O)[C@H](O)[C@@H]2O)O[C@H](CO)[C@@H](O)[C@@H]1O [UDP-GlcNAc] the “HPLC transferase assay with cell envelope fraction” value was “able to convert fl-BPs with far lower concentrations of UDP-GlcNAc”.
